Results reported in patent publication US5395947A, “Platinum(II) complex and processes for preparing the same” (Sunkyong Industries, Ltd., priority 1991, dated 1995).

Assays:
[1] = Test for water solubility; format: physicochemical; conditions: water
Description: 3. Test for water solubility
A standard plot of UV absorbance(220 nm) vs. concentration was made; and employed to determine water-solubility.
The mixture was then passed through a 0.45 micron disposable membrane filter before dilution and UV measurement.

ICR mice = assay: Acute toxicity test; format: in vivo; set-up: Lethality: unit not given here; conditions: for Lethality: 10080 min
Experimental: 7-week-old ICR mice(male: 34±2 g; female: 31±2 g) were fed with solid food and water under the condition of 23±1° C. temperature and 65±5% humidity before the test.
Each treatment group consisted of 6 mice. The test compounds were administered intraperitoneally.
For 7 days after the administration, the appearance and the fate of the tested animals were recorded. The dead animals were subjected to autopsy and their visible pathological changes were observed. Their viscerals were stored in 10% formalin solution.

murine leukemia L1210 = assay: Antitumor activity test on murine leukemia L1210 in vivo; set-up: species or system male BDF1 mice; conditions: days 1, 5, 9
Summary of the method: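 Intraperitoneal L1210 model: 1×10^6 cells inoculated i.p. into 6-week-old male BDF1 mice (21±3 g) on day 0, seven per group. Compounds in 0.5% CMC given i.p. on days 1, 5 and 9; vehicle-only controls. T/C % from mean survival time of treated over control.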

[2] = system: murine leukemia L1210 cells; assay: Growth inhibition test on cultured murine leukemia L1210 cells; format: cell-based; conditions: 48 hours, 37° C., Trypan blue viability
Summary of the method: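 L1210 cells (1×10^5) exposed to graded compound concentrations in RPMI 1640 with 10% fetal calf serum, 37° C, 5% CO2, 48 h. Viability by 0.17% Trypan blue staining, relative to untreated control cells.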

CCC1(C)OC2C[NH2+][Pt-2]3([NH2+]CC2O1)[O]CC(=O)[O]3 [Example 9, (glycolato-O,O')[(4R,5R)-4,5-bis(aminomethyl)-2-ethyl-2-methyl-1,3-dioxolane]platinum(II)]
Solubility in water [1]: 11600 µg/mL
Number of dead mice for 7 days (ICR mice; female, 41.3 mg/kg i.p.): 2/6
Number of dead mice, 1st day (ICR mice; female, 41.3 mg/kg i.p.): 0/6
Number of dead mice, 4th day (ICR mice; female, 41.3 mg/kg i.p.): 2/6
Lethality (ICR mice; female, 41.3 mg/kg i.p.): 0.0
Number of dead mice for 7 days (ICR mice; female, 54.9 mg/kg i.p.): 4/6
Number of dead mice, 1st day (ICR mice; female, 54.9 mg/kg i.p.): 0/6
Number of dead mice, 3rd day (ICR mice; female, 54.9 mg/kg i.p.): 1/6
Number of dead mice, 4th day (ICR mice; female, 54.9 mg/kg i.p.): 3/5
Lethality (ICR mice; female, 54.9 mg/kg i.p.): 50.0
Number of dead mice for 7 days (ICR mice; female, 71.4 mg/kg i.p.): 5/6
Number of dead mice, 1st day (ICR mice; female, 71.4 mg/kg i.p.): 0/6
Number of dead mice, 3rd day (ICR mice; female, 71.4 mg/kg i.p.): 1/6
Number of dead mice, 4th day (ICR mice; female, 71.4 mg/kg i.p.): 3/5
Number of dead mice, 5th day (ICR mice; female, 71.4 mg/kg i.p.): 1/2
Lethality (ICR mice; female, 71.4 mg/kg i.p.): 83.7
Number of dead mice for 7 days (ICR mice; female, 91.8 mg/kg i.p.): 6/6
Number of dead mice, 1st day (ICR mice; female, 91.8 mg/kg i.p.): 0/6
Number of dead mice, 3rd day (ICR mice; female, 91.8 mg/kg i.p.): 2/6
Number of dead mice, 4th day (ICR mice; female, 91.8 mg/kg i.p.): 4/4
Lethality (ICR mice; female, 91.8 mg/kg i.p.): 100.0
Number of dead mice for 7 days (ICR mice; male, 41.3 mg/kg i.p.): 0/6
Number of dead mice, 1st day (ICR mice; male, 41.3 mg/kg i.p.): 0/6
Number of dead mice, 4th day (ICR mice; male, 41.3 mg/kg i.p.): 2/6
Number of dead mice, 5th day (ICR mice; male, 41.3 mg/kg i.p.): 1/4
Lethality (ICR mice; male, 41.3 mg/kg i.p.): 0.0
Number of dead mice for 7 days (ICR mice; male, 54.9 mg/kg i.p.): 4/6
Number of dead mice, 1st day (ICR mice; male, 54.9 mg/kg i.p.): 0/6
Number of dead mice, 4th day (ICR mice; male, 54.9 mg/kg i.p.): 2/6
Number of dead mice, 5th day (ICR mice; male, 54.9 mg/kg i.p.): 2/4
Lethality (ICR mice; male, 54.9 mg/kg i.p.): 66.7
Number of dead mice for 7 days (ICR mice; male, 71.4 mg/kg i.p.): 5/6
Number of dead mice, 1st day (ICR mice; male, 71.4 mg/kg i.p.): 0/6
Number of dead mice, 4th day (ICR mice; male, 71.4 mg/kg i.p.): 1/6
Number of dead mice, 5th day (ICR mice; male, 71.4 mg/kg i.p.): 2/5
Number of dead mice, 6th day (ICR mice; male, 71.4 mg/kg i.p.): 2/3
Lethality (ICR mice; male, 71.4 mg/kg i.p.): 83.3
Number of dead mice for 7 days (ICR mice; male, 91.8 mg/kg i.p.): 6/6
Number of dead mice, 1st day (ICR mice; male, 91.8 mg/kg i.p.): 0/6
Number of dead mice, 2nd day (ICR mice; male, 91.8 mg/kg i.p.): 1/6
Number of dead mice, 3rd day (ICR mice; male, 91.8 mg/kg i.p.): 4/5
Number of dead mice, 4th day (ICR mice; male, 91.8 mg/kg i.p.): 1/1
Lethality (ICR mice; male, 91.8 mg/kg i.p.): 100.0
T/C (%) (murine leukemia L1210; 3.1 mg/kg i.p.): 148%
T/C (%) (murine leukemia L1210; 6.2 mg/kg i.p.): 187%
T/C (%) (murine leukemia L1210; 12.5 mg/kg i.p.): 231%
T/C (%) (murine leukemia L1210; 25 mg/kg i.p.): toxic
T/C (%) (murine leukemia L1210; 50 mg/kg i.p.): toxic
IC50 (concentration required for 50% inhibition of growth) [2]: 0.08 µg/mL

CC1[O][Pt][O]C1=O.NCC1OC2(CCCC2)OC1CN [Example 15, (L-lactato-O,O')[(4R,5R)-4,5-bis(aminomethyl)-1,3-dioxolane-2-spiro-1'-cyclopentane]platinum(II)]
Solubility in water [1]: 4900 µg/mL
Number of dead mice for 7 days (ICR mice; female, 41.3 mg/kg i.p.): 0/6
Number of dead mice, 1st day (ICR mice; female, 41.3 mg/kg i.p.): 0/6
Lethality (ICR mice; female, 41.3 mg/kg i.p.): 0.0
Number of dead mice for 7 days (ICR mice; female, 54.9 mg/kg i.p.): 3/6
Number of dead mice, 1st day (ICR mice; female, 54.9 mg/kg i.p.): 0/6
Number of dead mice, 3rd day (ICR mice; female, 54.9 mg/kg i.p.): 1/6
Number of dead mice, 4th day (ICR mice; female, 54.9 mg/kg i.p.): 1/5
Number of dead mice, 5th day (ICR mice; female, 54.9 mg/kg i.p.): 1/4
Lethality (ICR mice; female, 54.9 mg/kg i.p.): 50.0
Number of dead mice for 7 days (ICR mice; female, 71.4 mg/kg i.p.): 5/6
Number of dead mice, 1st day (ICR mice; female, 71.4 mg/kg i.p.): 0/6
Number of dead mice, 4th day (ICR mice; female, 71.4 mg/kg i.p.): 1/6
Number of dead mice, 5th day (ICR mice; female, 71.4 mg/kg i.p.): 3/5
Number of dead mice, 6th day (ICR mice; female, 71.4 mg/kg i.p.): 1/2
Lethality (ICR mice; female, 71.4 mg/kg i.p.): 83.7
Number of dead mice for 7 days (ICR mice; female, 91.8 mg/kg i.p.): 6/6
Number of dead mice, 1st day (ICR mice; female, 91.8 mg/kg i.p.): 0/6
Number of dead mice, 2nd day (ICR mice; female, 91.8 mg/kg i.p.): 1/6
Number of dead mice, 3rd day (ICR mice; female, 91.8 mg/kg i.p.): 2/5
Number of dead mice, 4th day (ICR mice; female, 91.8 mg/kg i.p.): 2/3
Number of dead mice, 5th day (ICR mice; female, 91.8 mg/kg i.p.): 1/1
Lethality (ICR mice; female, 91.8 mg/kg i.p.): 100.0
Number of dead mice for 7 days (ICR mice; male, 41.3 mg/kg i.p.): 0/6
Number of dead mice, 1st day (ICR mice; male, 41.3 mg/kg i.p.): 0/6
Lethality (ICR mice; male, 41.3 mg/kg i.p.): 0.0
Number of dead mice for 7 days (ICR mice; male, 54.9 mg/kg i.p.): 4/6
Number of dead mice, 1st day (ICR mice; male, 54.9 mg/kg i.p.): 0/6
Number of dead mice, 3rd day (ICR mice; male, 54.9 mg/kg i.p.): 2/6
Number of dead mice, 6th day (ICR mice; male, 54.9 mg/kg i.p.): 2/4
Lethality (ICR mice; male, 54.9 mg/kg i.p.): 66.7
Number of dead mice for 7 days (ICR mice; male, 71.4 mg/kg i.p.): 5/6
Number of dead mice, 1st day (ICR mice; male, 71.4 mg/kg i.p.): 0/6
Number of dead mice, 4th day (ICR mice; male, 71.4 mg/kg i.p.): 4/6
Number of dead mice, 5th day (ICR mice; male, 71.4 mg/kg i.p.): 1/2
Lethality (ICR mice; male, 71.4 mg/kg i.p.): 83.3
Number of dead mice for 7 days (ICR mice; male, 91.8 mg/kg i.p.): 6/6
Number of dead mice, 1st day (ICR mice; male, 91.8 mg/kg i.p.): 0/6
Number of dead mice, 2nd day (ICR mice; male, 91.8 mg/kg i.p.): 2/6
Number of dead mice, 3rd day (ICR mice; male, 91.8 mg/kg i.p.): 3/4
Number of dead mice, 4th day (ICR mice; male, 91.8 mg/kg i.p.): 1/1
Lethality (ICR mice; male, 91.8 mg/kg i.p.): 100.0
T/C (%) (murine leukemia L1210; 12.5 mg/kg i.p.): 225%
T/C (%) (murine leukemia L1210; 25 mg/kg i.p.): 243%
T/C (%) (murine leukemia L1210; 50 mg/kg i.p.): 192%
IC50 (concentration required for 50% inhibition of growth) [2]: 0.33 µg/mL
